Among the data in ChEMBL document CHEMBL1949623, “Camphorsulfonic acid catalysed facile tandem double Friedlander annulation protocol for the synthesis of phenoxy linked bisquinoline derivatives and discovery of antitubercular agents” (Bioorg Med Chem Lett, 2012) are IC50 values, retold here.

This assay deals with NIH3T3. Briefly: Cytotoxicity against mouse NIH/3T3 cells assessed as cell viability after 48 hrs by MTT assay. The class given is cell-based. Conditions: NIH3T3, 48 h. Background: Tetrazolium dyes change colour on reduction, which living cells bring about.

The term IC50 denotes the concentration at which inhibition is half-maximal.

Regarding `Clc1ccc2nc(-c3ccc(Oc4c(-c5ccc(Br)cc5)nc5ccc(Cl)cc5c4-c4ccccc4)cc3)cc(-c3ccccc3)c2c1`, the half-inhibitory concentration (IC50) was determined as 333 µM. Under `Clc1ccc2nc(-c3ccc(Oc4c(-c5cccc(Br)c5)nc5ccc(Cl)cc5c4-c4ccccc4)cc3)cc(-c3ccccc3)c2c1` stands 887 µM.
